What all share (type): cell-based
Assay [1] relates to Wnt activity (Sp5-Luc reporter, TCF/LEF binding sites) in SW480 colon carcinoma cells. Nature of the assay: Wnt activity screening assay, Sp5-Luc reporter gene in SW480 cells. As to conditions: Homo sapiens; for inhibition at 10 µM: given for EC50 >10 μM, read-out: percent inhibition at 10 μM; for EC50: overnight incubation. The procedure, abridged:
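Luminescence read-out (BrightGlo) from stable Sp5-Luc SW480 cells, normalized to DMSO-only wells. Cells were treated overnight at 37° C in 1% FBS medium across a 1:3, 10-point series starting at 10 μM. EC50 from variable-slope four-parameter regression; percent inhibition at 10 μM given where EC50 >10 μM.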
In general terms: A reporter such as luciferase makes a cellular process visible.

The next assay has as its system SW480 colon cancer cells. In words: Cell viability assay (CellTiter-Blue), SW480 cells. As to conditions: Homo sapiens; for EC50: 96 h, four days, CellTiter-Blue; for inhibition at 10 µM: given for EC50 >10 μM, read-out: percent inhibition at 10 μM. In outline: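 SW480 cells (~2×10^3/well) exposed to compound for four days at 37 °C/5% CO2, 1:3 8-point dilutions […]. Viability read by CellTiter-Blue resazurin reduction (~3 h, Ex 560/Em 590 nm); EC50 by non-linear regression, with % inhibition at 10 μM given when EC50 >10 μM.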
For orientation: The colour change of resazurin is a common sign of viable cells or microbes.

Assay [2] has as its system primary human fibroblasts derived from IPF patients (LL29 cells) treated with TGF-β1. In words: Inhibition of fibrotic process, αSMA staining in TGF-β1 treated LL29 fibroblasts. The note with it: Fibroblast; for EC50: 96 h, TGF-β1 20 ng/mL, 4 days, % cells positive for αSMA; for inhibition at 10 µM: given for EC50 >10 μM, TGF-β1, αSMA, read-out: percent inhibition at 10 μM. The procedure, abridged: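 Human IPF-derived LL29 lung fibroblasts in 1% FBS, TGF-β1 20 ng/mL, 11-point compound series, 0.1% DMSO, 4 days at 37 °C. SYTOX-positive cells excluded; % αSMA-positive cells imaged, normalized to TGF-β1/DMSO wells, EC50 by nonlinear fit. Above 10 μM, % inhibition at 10 μM given.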

As for `O=C(Cc1ccccc1)Nc1cncc(-c2ccc3[nH]nc(-c4cc5c(-c6ccoc6)cncc5[nH]4)c3n2)c1` [Compound 318, N-(5-(3-(4-(Furan-3-yl)-1H-pyrrolo[2,3-c]pyridin-2-yl)-1H-pyrazolo[4,3-b]pyridin-5-yl)pyridin-3-yl)-2-phenylacetamide], the inhibition (usually the drop in the measured response relative to a control, in per cent) at 10 µM was determined as 0% in assay [1], 23.8% in the assay on SW480 colon cancer cells and 35.5% in assay [2]. Moreover, the EC50 (in assay [1]; with SW480 colon cancer cells; in assay [2]) was over 10 µM each time.

With `Cc1ccncc1-c1ccc2[nH]nc(-c3cc4c(-c5cc(F)cc(CNS(C)(=O)=O)c5)cncc4[nH]3)c2n1` [Compound 481, N-(3-Fluoro-5-(2-(5-(4-methylpyridin-3-yl)-1H-pyrazolo[4,3-b]pyridin-3-yl)-1H-pyrrolo[2,3-c]pyridin-4-yl)benzyl)methanesulfonamide], the EC50 (as a rule, the concentration that produces a half-maximal response) in assay [1] stood at 0.98 µM; in the assay on SW480 colon cancer cells, 2.78 µM; in assay [2], 0.262 µM.

On to `CS(=O)(=O)NCc1cc(F)cc(-c2cncc3[nH]c(-c4n[nH]c5ccc(-c6cncc(CN7CCCCC7)c6)nc45)cc23)c1` [Compound 491, N-(3-Fluoro-5-(2-(5-(5-(piperidin-1-ylmethyl)pyridin-3-yl)-1H-pyrazolo[4,3-b]pyridin-3-yl)-1H-pyrrolo[2,3-c]pyridin-4-yl)benzyl)methanesulfonamide], for which the EC50 was 1.3 µM in assay [1], 1.96 µM in the assay with SW480 colon cancer cells and 1.22 µM in assay [2].

For the molecule `CS(=O)(=O)NCc1cc(F)cc(-c2cncc3[nH]c(-c4n[nH]c5ccc(-c6cncnc6)nc45)cc23)c1` [Compound 503, N-(3-Fluoro-5-(2-(5-(pyrimidin-5-yl)-1H-pyrazolo[4,3-b]pyridin-3-yl)-1H-pyrrolo[2,3-c]pyridin-4-yl)benzyl)methane sulfonamide], the inhibition at 10 µM worked out at 46.4% in assay [1] and 28.3% in the assay with SW480 colon cancer cells. Moreover, the concentration giving a half-maximal response (EC50) in assay [1] is over 10 µM; in the assay with SW480 colon cancer cells, over 10 µM; in assay [2], 2.21 µM.

On to `CS(=O)(=O)NCc1cc(F)cc(-c2cncc3[nH]c(-c4n[nH]c5ccc(-c6ccccn6)nc45)cc23)c1` [Compound 504, N-(3-Fluoro-5-(2-(5-(pyridin-2-yl)-1H-pyrazolo[4,3-b]pyridin-3-yl)-1H-pyrrolo[2,3-c]pyridin-4-yl)benzyl)methanesulfonamide], for which the EC50 in assay [1] was 3.65 µM; in the assay on SW480 colon cancer cells, over 10 µM; in assay [2] it was 3.67 µM. Also, the inhibition at 10 µM in the assay on SW480 colon cancer cells is 47.6%.

As to `Fc1cccc(-c2cncc3[nH]c(-c4n[nH]c5ccc(C6CCNCC6)nc45)cc23)c1` [Compound 505, 3-(4-(3-Fluorophenyl)-1H-pyrrolo[2,3-c]pyridin-2-yl)-5-(piperidin-4-yl)-1H-pyrazolo[4,3-b]pyridine], the inhibition at 10 µM in assay [1] amounted to 32.9%; in the assay with SW480 colon cancer cells, 26%; in assay [2], 0%. Moreover, the EC50 (in assay [1]; in the assay with SW480 colon cancer cells; in assay [2]) was over 10 µM each time.

With `Fc1ccccc1-c1cncc2[nH]c(-c3n[nH]c4ccc(-c5cn[nH]c5)nc34)cc12` [Compound 539, 3-(4-(2-Fluorophenyl)-1H-pyrrolo[2,3-c]pyridin-2-yl)-5-(1H-pyrazol-4-yl)-1H-pyrazolo[4,3-b]pyridine], the EC50 in assay [1] is 1.2 µM; with SW480 colon cancer cells, 2.89 µM; in assay [2], 2.31 µM.

In the case of `Cn1cc(-c2ccc3[nH]nc(-c4cc5c(-c6cccnc6)cncc5[nH]4)c3n2)cn1` [Compound 556, 5-(1-Methyl-1H-pyrazol-4-yl)-3-(4-(pyridin-3-yl)-1H-pyrrolo[2,3-c]pyridin-2-yl)-1H-pyrazolo[4,3-b]pyridine], the 50% effective concentration (EC50) amounted to 7.02 µM in assay [1], 4.04 µM in the assay on SW480 colon cancer cells and 3.02 µM in assay [2].

Consider `Cc1ncc(-c2ccc3[nH]nc(-c4cc5c(-c6ccncc6)cncc5[nH]4)c3n2)n1C` [Compound 573, 5-(1,2-Dimethyl-1H-imidazol-5-yl)-3-(4-(pyridin-4-yl)-1H-pyrrolo[2,3-c]pyridin-2-yl)-1H-pyrazolo[4,3-b]pyridine], for which the inhibition at 10 µM in assay [1] came out at 43.9%; in the assay on SW480 colon cancer cells, 5.3%. Moreover, the EC50 is over 10 µM in assay [1], over 10 µM in the assay with SW480 colon cancer cells and 2.19 µM in assay [2].

Regarding `c1cc(-c2cncc3[nH]c(-c4n[nH]c5ccc(-c6cncc(OCCN7CCCC7)c6)nc45)cc23)co1` [Compound 690, 3-(4-(Furan-3-yl)-1H-pyrrolo[2,3-c]pyridin-2-yl)-5-(5-(2-(pyrrolidin-1-yl)ethoxy)pyridin-3-yl)-1H-pyrazolo[4,3-b]pyridine], the inhibition at 10 µM in assay [1] stood at 7.4%; in the assay on SW480 colon cancer cells, 0%; in assay [2], 29.5%. For the same molecule, the EC50 (in assay [1]; with SW480 colon cancer cells; in assay [2]) was over 10 µM throughout.

Source of the values: US10519169B2, “3-(1H-pyrrolo[2,3-C]pyridin-2-yl)-1 H-pyrazolo[4,3-B]pyridines and therapeutic uses thereof” (Samumed, LLC, priority 2015, dated 2019).
